Results reported in patent publication US20260226101A1, “PEPTIDE WITH ANTI-INFLAMMATORY AND ANTI-MICROBIAL ACTIVITY” (priority 2023, published 2026).
Ends that are not written are not given here.

How the values were obtained:
[1] = test system: LPS-induced phosphorylation of ERK1/2 and p38 MAPK; experiment: Western blot of MAPK pathway in LPS-stimulated RAW 264.7 cells; format: cell-based, murine
Description: As previously described, RAW264.7 cells were cultured and treated with LPS and synthetic peptides. After 18 h, cells were washed with PBS and lysed by incubating with RIPA lysis buffer cocktail (RIPA Lysis buffer, PMSF (1 mM), Protease inhibitor (1 μg/mL), phosphatase inhibitor (1 mM)) at […] for 30 minutes. Post incubation, cell lysate was collected by scraping cells and centrifuged at 12000 rpm for 15 min.
The protein concentration was determined using the Bicinchoninic acid kit method with bovine serum albumin as the standard (provided in the kit), according to the manufacturer's instructions. Protein bands were electrophoretically transferred to a polyvinylidene difluoride (PVDF) membrane via semi-dry transfer blotting, Membranes were blocked with 5% BSA in PBST (1% Tween 20 in PBS) at 20-24° C. for 1 h, then incubated with primary antibodies against IL-10, TLR 4, VEGF, P38 p-p38, ERK and p-ERK, the dilutions are listed in table 3., at 4° C. overnight. GAPDH was used as a protein-loading control. The membrane was washed 3 times (10 min. each) with Tris-buffered saline/Tween 20 (TBST) and then treated with horseradish peroxidase (HRP)-conjugated secondary antibody (1:10000) for 1 h. The membrane was washed again with TBST. The membrane-binding antibodies were visualized later with the ECL detection reagent and images were acquired in a Fusion SL Imaging System. Band density was analyzed by densitometry using Image J software.

[2] = test system: LPS-stimulated RAW 264.7 cells; experiment: RT-qPCR of cytokine mRNA in LPS-stimulated RAW 264.7 cells; format: cell-based, murine; settings: vs LPS control
Description: Total cellular RNA was isolated using the RNA isoplus reagent (Takara Bioscience, India) following the manufacturer's instructions. RNA was quantified spectrophotometrically by absorption measurements at 260 and 280 nm using the nano drop system.
As per table 8, RNA and the reaction mixture were mixed in PCR a tube and incubated in a thermal cycler for 5 min at 65° C. in and then cooled immediately on ice. Further, in the same tube, the step 2 reaction mixture was added and further incubated in the thermal cycler as mentioned below.
Primers were designed using the Primer3 online tool. GAPDH was used as a normalizing control. The sequence of primers used is provided in below table 10. Real-Time PCR was performed according to the manufacturer's protocol using Takara biosystem's real-time PCR mix (Takara, Bio-India) with ROX as a passive reference dye using applied Biosystem's step-one Real-Time PCR system. The following PCR program was used for all real-time PCR-based experiments: initial denaturation at 95° C. for 2 minutes, followed by 40 cycles of denaturation at 95° C. for 15 seconds, annealing at 60° C. for 30 seconds, extension at 60° C. for 15 seconds.
For quantification of gene expression, CT values of each gene were normalized to GAPDH and calibrated to the appropriate control sample using the SYBR Green-based comparative CT method (2-ΔΔCt). Fold change was calculated using the formula 2-ΔΔct.

[3] = test system: BALB/C mice; experiment: Acute toxicity study, single dose; format: in vivo
Description: Once after acclimation period, a total of forty mice for IV route of administration, forty mice (half male and half female)/route were randomized based on bodyweight divided into four groups (10 in each group/per route, in each group 5 per sex) per strain via IV route of administration; prior to dosing initiation (table 12). On the day of dosing (designated as Day 0 of the study), the mice were 6 weeks old, and their body weights ranged from 20 to 25 g. The dosing volume was 0.1 ml per mice and the actual volume of peptide IS 111 solution administered was calculated based on body weight measurements obtained on the day of administration and was administered IV in increasing doses of the synthetic test peptide IS 111 0.6, 2.4, & 4.8 mg/kg; (administration once). The routes of administration were the same proposed for use in humans [Food and Drug Administration, 1988]. Prior to dosing the animals were deprived of food for 12 hours but had free access to drinking water. […]
After a single dose administration, mortality and clinical signs associated with toxicity were observed and recorded daily for consecutive two weeks; body weight changes were measured before and after administration on the 14th day. The animals were observed frequently during the first 4-6-hour period following dose administration and once daily, thereafter, for […], during which animals were evaluated for mortality, clinical signs of toxicity, and behavior. […] The number of animals killed for each of the doses was noted and the LD50 calculated by the Up and Down method, which is one of the most used to reduce the number of animals used [P. A. Botham, 2004]. […]
The mortality, general health status, and toxic reaction symptoms of the experimental groups were documented. Before the first day of IS 111 administration and during the experiments, a detailed clinical observation was carried out and recorded the changes in skin, eyes and mucous membrane, respiratory system, nervous system, activity, and behaviors of the […]. The body weight was measured and recorded before the first day of administration.

## FAKKFAK [IS 111, Phe-Ala-Lys-Lys-Phe-Ala-Lys]
[1]; IS111 treated cells
  IL-10 levels (western blot): increased
[1]; LPS-induced, western blot
  Phosphorylation of ERK (p-ERK1/2): significantly inhibited
[1]; concentration-dependent, western blot
  LPS-induced increase of p38 phosphorylation: markedly prevented
[2]; dose dependent
  CCL2 mRNA expression: reduction
[2]
  IL-1β mRNA expression: dose dependently reduced
  IL-6 mRNA expression: significant reduction
  TNF-α mRNA expression: significant reduction
[3]; any of the concentrations
  Adverse reaction in acute toxicity tests: no adverse reaction
[3]; single dose 0.6, 2.4, 4.8 mg/kg, 14 days
  Mortality: No mortality
[3]; single dose 0.6/2.4/4.8 mg/kg, intravenous
  Body weight and organ weights: no changes
